In ChEMBL document CHEMBL1123303, “Synthesis of 2-(4-substituted-1-piperazinyl)benzimidazoles as H1-antihistaminic agents” (J Med Chem, 1986):

What was measured:
[1] = In vivo for the inhibition of histamine-induced mortality in guinea pig; format: functional; conditions: Cavia porcellus
Histamine H1 receptor = Histamine H1 receptor (Cavia porcellus, UniProt P31389); assay: In vitro inhibition of histamine-induced contractions in guinea pig ileum; format: functional, tissue-based
Sequence of Histamine H1 receptor (P31389 whole entry): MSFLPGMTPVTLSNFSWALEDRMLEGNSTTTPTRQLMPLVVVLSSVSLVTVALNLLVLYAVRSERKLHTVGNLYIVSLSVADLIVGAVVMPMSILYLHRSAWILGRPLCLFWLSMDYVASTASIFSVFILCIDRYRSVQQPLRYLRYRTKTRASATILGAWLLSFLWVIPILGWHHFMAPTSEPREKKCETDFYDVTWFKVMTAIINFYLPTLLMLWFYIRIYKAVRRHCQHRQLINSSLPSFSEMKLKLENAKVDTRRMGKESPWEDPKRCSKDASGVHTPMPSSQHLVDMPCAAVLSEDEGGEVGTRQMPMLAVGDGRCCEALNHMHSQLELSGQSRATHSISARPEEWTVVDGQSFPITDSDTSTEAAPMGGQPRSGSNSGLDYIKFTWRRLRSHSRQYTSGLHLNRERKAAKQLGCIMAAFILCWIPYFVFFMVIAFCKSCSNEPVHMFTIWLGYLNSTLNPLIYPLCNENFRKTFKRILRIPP

Compound	ED50 [1] [mg/kg]	IC50 (Histamine H1 receptor) [nM]
CCCCN1CCN(c2nc3ccccc3n2CCOCC)CC1	> 0.1	15
CCCCOCCn1c(N2CCCN(C)CC2)nc2ccccc21	> 0.1	10
CCSCCCn1c(N2CCN(C)CC2)nc2ccccc21		530
CCCCCCN1CCN(c2nc3ccccc3n2CCOCC)CC1	> 0.1	8.6
CCCCOCCn1c(N2CCN(C)CC2)nc2ccccc21	> 0.1	38
CCCN1CCCN(c2nc3ccccc3n2CCOCC)CC1	> 0.1	8.4
C=CCOCCn1c(N2CCN(C)CC2)nc2ccccc21		17
CCCOCCn1c(N2CCCN(C)CC2)nc2ccccc21		16
C=COCCn1c(N2CCN(C)CC2)nc2ccccc21	0.023	10
CN1CCN(c2nc3ccccc3n2CCO)CC1		410
COCCCn1c(N2CCN(C)CC2)nc2ccccc21	> 0.1	860
CN1CCN(c2nc3ccccc3[nH]2)CC1		> 3000
C#CCOCCn1c(N2CCN(C)CC2)nc2ccccc21		12
CCCCCN1CCN(c2nc3ccccc3n2CCOCC)CC1	> 0.1	30
CCSCCn1c(N2CCN(C)CC2)nc2ccccc21	0.28	19
CCOCCn1c(N2CCN(C=O)CC2)nc2ccccc21		> 3000
CCCCCN1CCCN(c2nc3ccccc3n2CCOCC)CC1	> 0.05	7.4
C#CCOCCn1c(N2CCCN(C)CC2)nc2ccccc21		9.9
CCCCCn1c(N2CCN(C)CC2)nc2ccccc21	0.19	19
CCCCCCn1c(N2CCN(C)CC2)nc2ccccc21		26
CC(C)CCn1c(N2CCN(C)CC2)nc2ccccc21		1400
CCCN1CCN(c2nc3ccccc3n2CCOCC)CC1	0.021	16
CCCCCCCCCCn1c(N2CCN(C)CC2)nc2ccccc21		4200
CCCCN1CCCN(c2nc3ccccc3n2CCOCC)CC1	0.12	8.4
CCOCCn1c(N2CCCN(C)CC2)nc2ccccc21 [EMEDASTINE]	0.0044	6.1
CN1CCN(c2nc3ccccc3n2-c2ccccc2)CC1		760
CN1CCN(c2nc3ccccc3n2Cc2ccccc2)CC1	> 0.05	17

Compound	ED50 [1] [mg/kg]	IC50 (Histamine H1 receptor) [nM]
CN1CCN(c2nc3ccccc3n2C)CC1		320
CCOCCn1c(N2CCN(Cc3ccccc3)CC2)nc2ccccc21	0.039	27
CN1CCCN(c2nc3ccccc3n2CCOc2ccccc2)CC1		9.1
CCOCCn1c(N2CCN(CC)CC2)nc2ccccc21		18
CCOCCn1c(N2CCNCC2)nc2ccccc21		11
CCOCCn1c(N2CCN(C(c3ccccc3)c3ccccc3)CC2)nc2ccccc21		> 3000
CCCOCn1c(N2CCN(C)CC2)nc2ccccc21	> 0.1	18
CN1CCN(c2nc3ccccc3n2CCOCCO)CC1	0.051	42
CCCCCCCn1c(N2CCN(C)CC2)nc2ccccc21		150
CCCC(C)n1c(N2CCN(C)CC2)nc2ccccc21 (configuration not stated)		1400
CCOCCn1c(N2CCCN(CC)CC2)nc2ccccc21	0.032	16
CCCn1c(N2CCN(C)CC2)nc2ccccc21		380
CN1CCN(c2nc3ccccc3n2CCOCc2ccccc2)CC1	> 0.1	430
CCCCn1c(N2CCN(C)CC2)nc2ccccc21		50
CCCSCn1c(N2CCN(C)CC2)nc2ccccc21		68
C=CCOCCn1c(N2CCCN(C)CC2)nc2ccccc21		10
CCOCCn1c(N2CCN(CCc3ccccc3)CC2)nc2ccccc21	> 0.1	31
CCOCCn1c(N2CCCN(Cc3ccccc3)CC2)nc2ccccc21	> 0.1	15
CCCOCCn1c(N2CCN(C)CC2)nc2ccccc21		20
CN1CCN(c2nc3ccccc3n2CCOc2ccccc2)CC1		6.9
CCOCCn1c(N2CCN(C)CC2)nc2ccccc21		10
CN1CCN(c2nc3ccccc3n2CCc2ccccc2)CC1		240
COCCn1c(N2CCN(C)CC2)nc2ccccc21	> 0.05	13
CCCC(C)Cn1c(N2CCN(C)CC2)nc2ccccc21 (configuration not stated)		1500
CCOCCn1c(N2CCN(c3ccccc3)CC2)nc2ccccc21		> 10000
CCOCCn1c(N2CCCNCC2)nc2ccccc21	0.041	25
